# Columns and labels:
# [1] = molecular target: T1, WRN helicase (aa N517-P1238) (Homo sapiens, UniProt Q14191); test: WRN ATPase assay (DNA dependent ATP hydrolysis, ADP-Glo); assay type: biochemical; settings: 3 hours pre-incubation, 300 micromolar ATP, FLAP26 DNA; geometric mean of at least 2
# T1 construct: The core helicase motif of the WRN protein (aa N517-P1238) was produced for this assay; His (N); ZZ (N); 3C protease cleavage site (N); made in house; host or cells: Sf21 insect cells (baculovirus; virus and BIICs made in SF9)
# How it was run: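 DNA-dependent ATP hydrolysis detected as ADP by ADP-Glo luminescence, using 300 μM ATP, 0.2 nM FLAP26 substrate and 10 nM WRN aa N517-P1238 (Tris pH 7.5 buffer, 2 mM MgCl2, 50 mM NaCl). IC50s fitted from normalized duplicate half-log dilutions; reported as geometric means of at least 2 replicates.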
# DLD1-WRN-KO cells = test: Proliferation assay DLD1-WRN-KO (CellTiterGlo, off-target effects); assay type: cell-based; settings: 96 hours, geometric mean of at least 2
# How it was run: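 DLD1 cells with CRISPR knockout of WRN were exposed overnight-seeded to eight 3-fold compound dilutions (0.1% DMSO) for 96 h at 37 °C. Viability was read as ATP by CellTiterGlo luminescence against a day-0 plate, giving GI50 and residual viability at top concentration.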
# SW48 cells = test: Proliferation assay SW48 (CellTiterGlo); assay type: cell-based; settings: Homo sapiens, SW48, 96 h, SW48 colon carcinoma cells, 96 hours, CellTiterGlo; geometric mean of at least 2; read-out: Proliferation Assay SW48 GI50
# How it was run: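 SW48 cells, 2,000/well, treated after overnight seeding with eight 3-fold compound dilutions (0.1% DMSO) for 96 hours at 37° C. Viability read as ATP by CellTiterGlo luminescence, normalised to a day-0 plate and vehicle to give % growth; GI50 is geometric mean of ≥2 independent replicates.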
# T1 sequence (Q14191 517-1238): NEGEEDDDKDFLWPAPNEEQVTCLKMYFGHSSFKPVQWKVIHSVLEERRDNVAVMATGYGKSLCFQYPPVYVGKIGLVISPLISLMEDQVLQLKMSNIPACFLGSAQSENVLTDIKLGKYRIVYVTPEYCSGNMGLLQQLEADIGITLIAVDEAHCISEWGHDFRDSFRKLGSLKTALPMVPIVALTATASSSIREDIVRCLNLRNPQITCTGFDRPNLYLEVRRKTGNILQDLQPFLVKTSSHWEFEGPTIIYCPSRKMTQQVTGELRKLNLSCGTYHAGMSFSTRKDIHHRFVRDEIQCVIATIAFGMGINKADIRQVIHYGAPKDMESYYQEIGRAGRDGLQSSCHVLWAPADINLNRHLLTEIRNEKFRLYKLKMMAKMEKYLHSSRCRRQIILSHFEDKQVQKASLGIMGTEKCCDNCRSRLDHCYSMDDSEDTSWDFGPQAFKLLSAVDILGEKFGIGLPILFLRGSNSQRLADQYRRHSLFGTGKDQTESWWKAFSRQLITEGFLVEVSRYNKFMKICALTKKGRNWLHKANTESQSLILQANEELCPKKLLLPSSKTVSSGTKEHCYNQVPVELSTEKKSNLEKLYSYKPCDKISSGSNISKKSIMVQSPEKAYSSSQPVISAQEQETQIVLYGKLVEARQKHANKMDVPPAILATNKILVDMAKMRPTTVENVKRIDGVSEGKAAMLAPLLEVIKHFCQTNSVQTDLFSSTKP
Compound,IC50 [1] [µM],GI50 (DLD1-WRN-KO cells) [µM],GI50 (SW48 cells) [µM]
"Cc1c(N2CCN(C(=O)c3c(O)cccc3Cl)CC2)c(=O)n2nc(C3=CCOCC3)nc2n1CC(=O)Nc1ccc(C(F)(F)F)cc1 [Example 149, 2-(6-(4-(2-chloro-6-hydroxybenzoyl)piperazin-1-yl)-2-(3,6-dihydro-2H-pyran-4-yl)-5-methyl-7-oxo-[1,2,4]triazolo[1,5-a]pyrimidin-4(7H)-yl)-N-(4-(trifluoromethyl)phenyl)acetamide]",0.09,> 10,2
"Cc1c(N2CCN(C(=O)c3ccc(F)c(F)c3O)CC2)c(=O)n2nc(N3CCOCC3)nc2n1CC(=O)Nc1ccc(C(F)(F)F)cc1 [Example 150, 2-(6-(4-(3,4-difluoro-2-hydroxybenzoyl)piperazin-1-yl)-5-methyl-2-morpholino-7-oxo-[1,2,4]triazolo[1,5-a]pyrimidin-4(7H)-yl)-N-(4-(trifluoromethyl)phenyl)acetamide]",0.09,> 10,2
"COc1cccc(C(=O)N2CCN(c3c(C)n(CC(=O)Nc4ccc(C(F)(F)F)cc4)c4nc(C5=CCOCC5)nn4c3=O)CC2)c1N [Example 155, 2-(6-(4-(2-amino-3-methoxybenzoyl)piperazin-1-yl)-2-(3,6-dihydro-2H-pyran-4-yl)-5-methyl-7-oxo-[1,2,4]triazolo[1,5-a]pyrimidin-4(7H)-yl)-N-(4-(trifluoromethyl)phenyl)acetamide]",0.1,> 10,2
"Cc1nnc(C(=O)N2CCN(c3c(C)n(CC(=O)Nc4ccc(C(F)(F)F)cc4)c4nc(C5=CCOCC5)nn4c3=O)CC2)[nH]1 [Example 159, 2-(2-(3,6-dihydro-2H-pyran-4-yl)-5-methyl-6-(4-(5-methyl-4H-1,2,4-triazole-3-carbonyl)piperazin-1-yl)-7-oxo-[1,2,4]triazolo[1,5-a]pyrimidin-4(7H)-yl)-N-(4-(trifluoromethyl)phenyl)acetamide]",0.6,> 10,> 10
"Cc1c(N2CCN(C(=O)c3ncccc3N)CC2)c(=O)n2nc(N3CCOCC3)nc2n1CC(=O)Nc1ccc(C(F)(F)F)cc1 [Example 160, 2-(6-(4-(3-aminopicolinoyl)piperazin-1-yl)-5-methyl-2-morpholino-7-oxo-[1,2,4]triazolo[1,5-a]pyrimidin-4(7H)-yl)-N-(4-(trifluoromethyl)phenyl)acetamide]",0.6,> 10,6
"CC(=O)N1C2CCC1CN(c1c(C)n(CC(=O)Nc3ccc(C(F)(F)F)cc3)c3nc(C4=CCOCC4)nn3c1=O)C2 [Example 161, 2-(6-(8-acetyl-3,8-diazabicyclo[3.2.1]octan-3-yl)-2-(3,6-dihydro-2H-pyran-4-yl)-5-methyl-7-oxo-[1,2,4]triazolo[1,5-a]pyrimidin-4(7H)-yl)-N-(4-(trifluoromethyl)phenyl)acetamide]",0.7,> 10,5
"CC(=O)N1CCN(c2c(C(C)C)n(CC(=O)Nc3ccc(C(F)(F)F)cc3)c3nc(C4=CCOCC4)nn3c2=O)CC1 [Example 162, 2-(6-(4-acetylpiperazin-1-yl)-2-(3,6-dihydro-2H-pyran-4-yl)-5-isopropyl-7-oxo-[1,2,4]triazolo[1,5-a]pyrimidin-4(7H)-yl)-N-(4-(trifluoromethyl)phenyl)acetamide]",0.9,> 10,3

# Continued by falling IC50 [1], values first:
IC50 [1] [µM],GI50 (DLD1-WRN-KO cells) [µM],GI50 (SW48 cells) [µM],Compound
1,> 10,7,"CC(=O)N1CCN(c2c(C)n(CC(=O)Nc3ccc(C(F)(F)F)cc3)c3nc(C4=CCOCC4)nn3c2=O)CC1C (stereo not drawn) [Example 163, 2-(6-(4-acetyl-3-methylpiperazin-1-yl)-2-(3,6-dihydro-2H-pyran-4-yl)-5-methyl-7-oxo-[1,2,4]triazolo[1,5-a]pyrimidin-4(7H)-yl)-N-(4-(trifluoromethyl)phenyl)acetamide]"
0.5,> 10,> 10,"Cc1c(N2CCN(C(=O)c3cnccc3O)CC2)c(=O)n2nc(N3CCOCC3)nc2n1CC(=O)Nc1ccc(C(F)(F)F)cc1 [Example 152, 2-(5-methyl-2-morpholino-7-oxo-6-(4-(4-oxo-1,4-dihydropyridine-3-carbonyl)piperazin-1-yl)-[1,2,4]triazolo[1,5-a]pyrimidin-4(7H)-yl)-N-(4-(trifluoromethyl)phenyl)acetamide]"
0.3,1,3,"CC(=O)N1CCN(c2c(C)n(CC(=O)Nc3ccc(Cl)cc3)c3nc(N4CCN(C(=O)OC(C)(C)C)CC4)nn3c2=O)CC1 [Example 158, tert-butyl 4-(6-(4-acetylpiperazin-1-yl)-4-(2-((4-chlorophenyl)amino)-2-oxoethyl)-5-methyl-7-oxo-4,7-dihydro-[1,2,4]triazolo[1,5-a]pyrimidin-2-yl)piperazine-1-carboxylate]"
0.2,> 10,3,"COC(=O)N1CC=C(c2nc3n(CC(=O)Nc4ccc(S(F)(F)(F)(F)F)cc4)c(C)c(N4CCN(C(C)=O)CC4)c(=O)n3n2)CC1 [Example 156, methyl 4-(6-(4-acetylpiperazin-1-yl)-5-methyl-7-oxo-4-(2-oxo-2-((4-(pentafluoro-16-sulfaneyl)phenyl)amino)ethyl)-4,7-dihydro-[1,2,4]triazolo[1,5-a]pyrimidin-2-yl)-3,6-dihydropyridine-1(2H)-carboxylate]"
0.2,> 10,3,"Cc1c(N2CCN(C(=O)c3cc(F)ccc3N)CC2)c(=O)n2nc(C3=CCOCC3)nc2n1CC(=O)Nc1ccc(C(F)(F)F)cc1 [Example 157, 2-(6-(4-(2-amino-5-fluorobenzoyl)piperazin-1-yl)-2-(3,6-dihydro-2H-pyran-4-yl)-5-methyl-7-oxo-[1,2,4]triazolo[1,5-a]pyrimidin-4(7H)-yl)-N-(4-(trifluoromethyl)phenyl)acetamide]"
0.1,> 10,> 10,"Cc1c(N2CCN(C(=O)c3c[nH]c(=O)cn3)CC2)c(=O)n2nc(N3CCOCC3)nc2n1CC(=O)Nc1ccc(C(F)(F)F)cc1 [Example 166, 2-(5-methyl-2-morpholino-7-oxo-6-(4-(5-oxo-4,5-dihydropyrazine-2-carbonyl)piperazin-1-yl)-[1,2,4]triazolo[1,5-a]pyrimidin-4(7H)-yl)-N-(4-(trifluoromethyl)phenyl)acetamide]"
0.06,> 10,0.3,"Cc1c(N2CCN(C(=O)c3c(F)ccc(F)c3O)C(C)C2)c(=O)n2nc(C3=CCOCC3)nc2n1CC(=O)Nc1ccc(C(F)(F)F)cc1 (stereo not drawn) [Example 148, 2-(6-(4-(3,6-difluoro-2-hydroxybenzoyl)-3-methylpiperazin-1-yl)-2-(3,6-dihydro-2H-pyran-4-yl)-5-methyl-7-oxo-[1,2,4]triazolo[1,5-a]pyrimidin-4(7H)-yl)-N-(4-(trifluoromethyl)phenyl)acetamide]"
0.05,> 10,> 10,"Cc1c(N2CCN(C(=O)c3cc(C#N)n[nH]3)CC2)c(=O)n2nc(C3=CCOCC3)nc2n1CC(=O)Nc1ccc(C(F)(F)F)cc1 [Example 164, 2-(6-(4-(3-cyano-1H-pyrazole-5-carbonyl)piperazin-1-yl)-2-(3,6-dihydro-2H-pyran-4-yl)-5-methyl-7-oxo-[1,2,4]triazolo[1,5-a]pyrimidin-4(7H)-yl)-N-(4-(trifluoromethyl)phenyl)acetamide]"
